Measurements from ChEMBL document CHEMBL1909046, “DrugMatrix in vitro pharmacology data”.

Columns and labels:
[1] = target: T1, 5-hydroxytryptamine receptor 1A (Rattus norvegicus, UniProt P19327); type: cell membranes, CHO-K1, Membrane; conditions: cho-k1; also: in other assays of this panel Not Active means under 50% inhibition at 10 µM
T1 sequence (P19327 whole entry): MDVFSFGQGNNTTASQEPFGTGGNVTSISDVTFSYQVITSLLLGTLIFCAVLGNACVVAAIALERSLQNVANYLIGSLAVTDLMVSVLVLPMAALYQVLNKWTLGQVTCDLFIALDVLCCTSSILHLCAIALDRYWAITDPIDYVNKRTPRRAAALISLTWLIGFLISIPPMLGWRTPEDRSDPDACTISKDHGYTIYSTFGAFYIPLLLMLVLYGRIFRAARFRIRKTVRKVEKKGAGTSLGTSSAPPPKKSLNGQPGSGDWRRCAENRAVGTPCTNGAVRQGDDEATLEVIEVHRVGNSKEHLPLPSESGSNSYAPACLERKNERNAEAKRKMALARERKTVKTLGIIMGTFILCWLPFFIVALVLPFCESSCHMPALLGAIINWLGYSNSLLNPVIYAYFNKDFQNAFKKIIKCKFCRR

[2] = target: Acetylcholinesterase (Homo sapiens, UniProt P22303); assay: DRUGMATRIX: Acetylcholinesterase enzyme inhibition (substrate: acetylthiocholine); type: cell-based, HEK293; conditions: hek293; Not Active = under 50% inhibition at 10 µM
[3] = target: D(1A) dopamine receptor (Homo sapiens, UniProt P21728); assay: DRUGMATRIX: Dopamine D1 radioligand binding (ligand: [3H] SCH-23390); type: cell membranes, CHO, Membrane; conditions: cho; Not Active = under 50% inhibition at 10 µM
[4] = target: T2, Neutrophil elastase (Homo sapiens, UniProt P08246); type: tissue-based;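 also: inhibition of neutrophil elastase enzyme activity, measured with a p-nitroanilide-linked peptide substrate; in other assays of this panel Not Active means under 50% inhibition at 10 µM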
T2 sequence (P08246 whole entry): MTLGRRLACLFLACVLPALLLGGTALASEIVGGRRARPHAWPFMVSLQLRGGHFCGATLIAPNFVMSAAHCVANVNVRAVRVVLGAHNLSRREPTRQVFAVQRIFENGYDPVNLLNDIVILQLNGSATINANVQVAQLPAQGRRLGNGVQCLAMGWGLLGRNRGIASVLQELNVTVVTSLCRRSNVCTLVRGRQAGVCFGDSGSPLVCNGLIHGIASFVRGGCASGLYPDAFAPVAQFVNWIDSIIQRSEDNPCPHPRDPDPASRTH

[5] = DRUGMATRIX: Calcium Channel Type L, Benzothiazepine radioligand binding (ligand: [3H] Diltiazem); type: cell membranes, Rattus norvegicus, Wistar, Brain, Membrane; conditions: Not Active = under 50% inhibition at 10 µM
[6] = target: T3, Endothelin-1 receptor (Homo sapiens, UniProt P25101); type: cell membranes, Membrane; conditions: cho-k1; also: in other assays of this panel Not Active means under 50% inhibition at 10 µM
T3 sequence (P25101 whole entry): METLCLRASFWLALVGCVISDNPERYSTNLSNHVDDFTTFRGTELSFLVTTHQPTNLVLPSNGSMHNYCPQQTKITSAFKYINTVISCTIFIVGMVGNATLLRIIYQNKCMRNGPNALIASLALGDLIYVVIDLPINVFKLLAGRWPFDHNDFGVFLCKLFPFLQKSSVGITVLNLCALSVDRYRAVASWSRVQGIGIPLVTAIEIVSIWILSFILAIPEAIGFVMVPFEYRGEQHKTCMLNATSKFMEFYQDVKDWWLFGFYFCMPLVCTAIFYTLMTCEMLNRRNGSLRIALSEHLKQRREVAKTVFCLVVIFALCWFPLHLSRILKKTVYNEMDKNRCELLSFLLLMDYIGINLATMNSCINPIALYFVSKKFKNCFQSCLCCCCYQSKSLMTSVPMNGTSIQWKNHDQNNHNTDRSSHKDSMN

[7] = target: Cannabinoid receptor 1 (Homo sapiens, UniProt P21554); type: cell membranes, Membrane; conditions: chem-1; also: in other assays of this panel Not Active means under 50% inhibition at 10 µM
[8] = DRUGMATRIX: Phosphodiesterase PDE3 enzyme inhibition (substrate: [3H]cAMP + cAMP); type: tissue-based, Homo sapiens; conditions: platelet; Not Active = under 50% inhibition at 10 µM
[9] = target: D(3) dopamine receptor (Homo sapiens, UniProt P35462); assay: DRUGMATRIX: Dopamine D3 radioligand binding (ligand: [3H] Spiperone); type: cell membranes, CHO, Membrane; conditions: cho
[10] = target: T4, Muscarinic acetylcholine receptor M4 (Homo sapiens, UniProt P08173); type: cell membranes, CHO-K1, Membrane; conditions: cho-k1; also: in other assays of this panel Not Active means under 50% inhibition at 10 µM
T4 sequence (P08173 whole entry): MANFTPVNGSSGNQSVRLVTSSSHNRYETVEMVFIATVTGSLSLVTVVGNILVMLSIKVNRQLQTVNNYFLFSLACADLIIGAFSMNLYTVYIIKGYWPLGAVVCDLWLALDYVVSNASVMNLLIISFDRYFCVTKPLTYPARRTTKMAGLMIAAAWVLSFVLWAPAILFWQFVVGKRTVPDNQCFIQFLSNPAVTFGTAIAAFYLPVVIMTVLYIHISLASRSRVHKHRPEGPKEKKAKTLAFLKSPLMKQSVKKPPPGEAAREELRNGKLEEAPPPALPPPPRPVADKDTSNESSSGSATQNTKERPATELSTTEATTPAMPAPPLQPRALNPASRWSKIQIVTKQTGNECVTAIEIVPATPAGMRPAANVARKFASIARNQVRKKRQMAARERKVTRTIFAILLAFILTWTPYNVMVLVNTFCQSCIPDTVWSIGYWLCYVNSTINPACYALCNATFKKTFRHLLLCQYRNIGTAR

[11] = DRUGMATRIX: Glutamate, Kainate radioligand binding (ligand: [3H] Kainic acid); type: cell membranes, Rattus norvegicus, Wistar, Brain, Membrane; conditions: Not Active = under 50% inhibition at 10 µM
[12] = target: T5, Neuropeptide Y receptor type 1 (Homo sapiens, UniProt P25929); type: cell membranes, Membrane; conditions: sk-n-mc; also: in other assays of this panel Not Active means under 50% inhibition at 10 µM
T5 sequence (P25929 whole entry): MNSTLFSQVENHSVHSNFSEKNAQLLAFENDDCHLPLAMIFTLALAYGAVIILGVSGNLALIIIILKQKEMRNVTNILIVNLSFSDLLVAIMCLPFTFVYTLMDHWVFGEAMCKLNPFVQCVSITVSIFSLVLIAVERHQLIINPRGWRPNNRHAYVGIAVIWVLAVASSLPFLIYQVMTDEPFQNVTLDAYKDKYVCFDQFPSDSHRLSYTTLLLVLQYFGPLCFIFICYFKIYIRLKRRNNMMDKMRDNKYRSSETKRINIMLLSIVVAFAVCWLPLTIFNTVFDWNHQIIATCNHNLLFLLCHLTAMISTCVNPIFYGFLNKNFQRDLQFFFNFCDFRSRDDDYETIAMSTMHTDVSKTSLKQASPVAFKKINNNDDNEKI

[13] = target: Delta-type opioid receptor (Homo sapiens, UniProt P41143); type: cell membranes, HEK293, Membrane; conditions: hek293; also: in other assays of this panel Not Active means under 50% inhibition at 10 µM
Sequence of Delta-type opioid receptor (P41143 whole entry): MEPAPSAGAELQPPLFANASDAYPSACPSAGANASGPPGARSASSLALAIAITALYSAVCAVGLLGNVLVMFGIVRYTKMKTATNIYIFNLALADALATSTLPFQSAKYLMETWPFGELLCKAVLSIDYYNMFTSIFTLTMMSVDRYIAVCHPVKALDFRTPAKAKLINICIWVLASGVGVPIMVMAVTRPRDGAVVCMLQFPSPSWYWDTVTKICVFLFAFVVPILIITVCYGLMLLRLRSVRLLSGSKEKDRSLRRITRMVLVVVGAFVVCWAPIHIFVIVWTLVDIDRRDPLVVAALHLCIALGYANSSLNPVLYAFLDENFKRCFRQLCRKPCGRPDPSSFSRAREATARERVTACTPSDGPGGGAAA

Sequence of D(1A) dopamine receptor (P21728 whole entry): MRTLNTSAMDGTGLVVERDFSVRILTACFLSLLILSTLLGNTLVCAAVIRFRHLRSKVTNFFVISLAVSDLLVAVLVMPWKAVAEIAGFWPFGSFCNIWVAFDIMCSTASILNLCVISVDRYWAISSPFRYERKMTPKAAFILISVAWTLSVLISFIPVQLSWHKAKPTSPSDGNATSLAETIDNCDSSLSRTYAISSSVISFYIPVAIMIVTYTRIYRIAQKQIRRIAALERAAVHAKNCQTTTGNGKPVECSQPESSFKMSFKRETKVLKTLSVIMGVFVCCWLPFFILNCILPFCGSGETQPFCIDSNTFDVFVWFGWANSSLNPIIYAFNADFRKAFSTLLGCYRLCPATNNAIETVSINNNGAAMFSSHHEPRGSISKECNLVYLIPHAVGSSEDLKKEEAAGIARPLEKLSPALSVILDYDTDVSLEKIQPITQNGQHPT
Sequence of D(3) dopamine receptor (P35462 whole entry): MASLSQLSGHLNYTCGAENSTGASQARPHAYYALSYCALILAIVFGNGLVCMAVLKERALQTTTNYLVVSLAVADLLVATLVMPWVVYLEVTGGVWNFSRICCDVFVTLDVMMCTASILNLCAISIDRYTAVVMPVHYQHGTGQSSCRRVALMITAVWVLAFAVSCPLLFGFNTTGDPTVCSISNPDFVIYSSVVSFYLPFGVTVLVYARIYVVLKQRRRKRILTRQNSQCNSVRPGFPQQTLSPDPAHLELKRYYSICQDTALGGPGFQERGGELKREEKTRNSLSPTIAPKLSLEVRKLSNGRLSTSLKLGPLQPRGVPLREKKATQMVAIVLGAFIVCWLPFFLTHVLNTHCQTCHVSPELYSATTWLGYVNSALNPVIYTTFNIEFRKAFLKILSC
Sequence of Acetylcholinesterase (P22303 whole entry): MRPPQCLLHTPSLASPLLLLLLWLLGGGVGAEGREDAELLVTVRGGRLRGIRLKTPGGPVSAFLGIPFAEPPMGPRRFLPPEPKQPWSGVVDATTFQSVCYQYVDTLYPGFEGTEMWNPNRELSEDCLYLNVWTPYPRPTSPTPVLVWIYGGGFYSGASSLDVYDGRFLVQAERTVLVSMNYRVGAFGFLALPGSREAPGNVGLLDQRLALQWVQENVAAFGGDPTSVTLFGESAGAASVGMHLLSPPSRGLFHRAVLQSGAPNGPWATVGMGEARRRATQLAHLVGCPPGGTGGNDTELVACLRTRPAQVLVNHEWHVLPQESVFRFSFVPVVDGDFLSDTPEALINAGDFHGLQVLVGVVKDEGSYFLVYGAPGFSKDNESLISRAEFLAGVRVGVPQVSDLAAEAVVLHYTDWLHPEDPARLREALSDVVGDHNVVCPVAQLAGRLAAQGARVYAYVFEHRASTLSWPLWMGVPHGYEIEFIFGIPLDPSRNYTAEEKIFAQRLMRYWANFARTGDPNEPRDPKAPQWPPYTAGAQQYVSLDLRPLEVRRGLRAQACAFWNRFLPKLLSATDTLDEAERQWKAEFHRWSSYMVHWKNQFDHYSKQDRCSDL
Sequence of Cannabinoid receptor 1 (P21554 whole entry): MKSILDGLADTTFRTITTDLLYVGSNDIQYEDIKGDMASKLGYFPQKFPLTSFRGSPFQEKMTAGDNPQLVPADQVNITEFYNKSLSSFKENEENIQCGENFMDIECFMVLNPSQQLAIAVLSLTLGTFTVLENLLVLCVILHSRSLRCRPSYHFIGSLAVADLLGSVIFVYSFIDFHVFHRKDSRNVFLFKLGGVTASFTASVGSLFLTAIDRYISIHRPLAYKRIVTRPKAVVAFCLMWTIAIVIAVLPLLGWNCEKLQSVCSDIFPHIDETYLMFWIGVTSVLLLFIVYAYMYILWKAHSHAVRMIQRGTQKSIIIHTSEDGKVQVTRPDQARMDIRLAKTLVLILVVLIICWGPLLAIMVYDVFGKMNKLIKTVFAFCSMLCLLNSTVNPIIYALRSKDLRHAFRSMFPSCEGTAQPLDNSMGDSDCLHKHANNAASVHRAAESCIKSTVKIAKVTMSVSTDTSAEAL

CC(C)n1c(/C=C/C(O)CC(O)CC(=O)O)c(-c2ccc(F)cc2)c2ccccc21 (centres undefined) [FLUVASTATIN]
Not Active: IC50 [1] | IC50 [2] | IC50 [3] | IC50 [4] | IC50 [5] | Ki [5] | IC50 [6] | IC50 [7] | IC50 [8] | Ki [8] | IC50 [9] | IC50 [10] | IC50 [11] | Ki [11] | IC50 [12] | IC50 [13]

O=C1OCCN1/N=C/c1ccc([N+](=O)[O-])o1 [FURAZOLIDONE]
Not Active: IC50 [1] | IC50 [2] | IC50 [3] | IC50 [4] | IC50 [5] | Ki [5] | IC50 [6] | IC50 [7] | IC50 [8] | Ki [8] | IC50 [9] | IC50 [10] | IC50 [11] | Ki [11] | IC50 [12] | IC50 [13]

NCC1(CC(=O)O)CCCCC1 [GABAPENTIN]
Not Active: IC50 [1] | IC50 [2] | IC50 [3] | IC50 [4] | IC50 [5] | Ki [5] | IC50 [6] | IC50 [7] | IC50 [8] | Ki [8] | IC50 [9] | IC50 [10] | IC50 [11] | Ki [11] | IC50 [12] | IC50 [13]

CC[N+](CC)(CC)CCOc1cccc(OCC[N+](CC)(CC)CC)c1OCC[N+](CC)(CC)CC.[I-].[I-].[I-] [GALLAMINE TRIETHIODIDE]
Not Active: IC50 [1] | IC50 [2] | IC50 [3] | IC50 [4] | IC50 [5] | Ki [5] | IC50 [6] | IC50 [7] | IC50 [8] | Ki [8] | IC50 [9] | IC50 [10] | IC50 [11] | Ki [11] | IC50 [12] | IC50 [13]

Nc1nc2c(ncn2COC(CO)CO)c(=O)[nH]1 [GANCICLOVIR]
Not Active: IC50 [1] | IC50 [2] | IC50 [3] | IC50 [4] | IC50 [5] | Ki [5] | IC50 [6] | IC50 [7] | IC50 [8] | Ki [8] | IC50 [9] | IC50 [10] | IC50 [11] | Ki [11] | IC50 [12] | IC50 [13]

COc1c(N2CCNC(C)C2)c(F)cc2c(=O)c(C(=O)O)cn(C3CC3)c12 (centres undefined) [GATIFLOXACIN]
Not Active: IC50 [1] | IC50 [2] | IC50 [3] | IC50 [4] | IC50 [5] | Ki [5] | IC50 [6] | IC50 [7] | IC50 [8] | Ki [8] | IC50 [9] | IC50 [10] | IC50 [11] | Ki [11] | IC50 [12] | IC50 [13]

NCC(=O)O [GLYCINE]
Not Active: IC50 [1] | IC50 [2] | IC50 [3] | IC50 [4] | IC50 [5] | Ki [5] | IC50 [6] | IC50 [7] | IC50 [8] | Ki [8] | IC50 [9] | IC50 [10] | IC50 [11] | Ki [11] | IC50 [12] | IC50 [13]

CC1(C)[C@@H](O[C@H]2O[C@H](C(=O)O)[C@@H](O)[C@H](O)[C@H]2O[C@@H]2O[C@H](C(=O)O)[C@@H](O)[C@H](O)[C@H]2O)CC[C@]2(C)[C@H]3C(=O)C=C4[C@@H]5C[C@@](C)(C(=O)O)CC[C@]5(C)CC[C@@]4(C)[C@]3(C)CC[C@@H]12 [GLYCYRRHIZIN]
Not Active: IC50 [1] | IC50 [2] | IC50 [3] | IC50 [4] | IC50 [5] | Ki [5] | IC50 [6] | IC50 [7] | IC50 [8] | Ki [8] | IC50 [9] | IC50 [10] | IC50 [11] | Ki [11] | IC50 [12] | IC50 [13]

COC1=CC(=O)C[C@@H](C)[C@]12Oc1c(Cl)c(OC)cc(OC)c1C2=O [GRISEOFULVIN]
Not Active: IC50 [1] | IC50 [2] | IC50 [3] | IC50 [4] | IC50 [5] | Ki [5] | IC50 [6] | IC50 [7] | IC50 [8] | Ki [8] | IC50 [9] | IC50 [10] | IC50 [11] | Ki [11] | IC50 [12] | IC50 [13]
